Results published in patent US20210395210A1, “INHIBITION OF BACTERIAL CHAPERONIN SYSTEMS” (THE TRUSTEES OF INDIANA UNIVERSITY, priority 2018, published 2021).
Where two headings read alike, the source gives them in different places.

Tests used:
[1] = target: T1, native MDH (Sus scrofa, UniProt P00346); assay: Counter-screen for inhibition of native MDH enzymatic activity; type: biochemical, pig
T1 construct: soluble pig heart MDH from Roche, product #10127248001; purchased Roche 10127248001; host or cells: pig heart
T1 sequence (P00346 25-338): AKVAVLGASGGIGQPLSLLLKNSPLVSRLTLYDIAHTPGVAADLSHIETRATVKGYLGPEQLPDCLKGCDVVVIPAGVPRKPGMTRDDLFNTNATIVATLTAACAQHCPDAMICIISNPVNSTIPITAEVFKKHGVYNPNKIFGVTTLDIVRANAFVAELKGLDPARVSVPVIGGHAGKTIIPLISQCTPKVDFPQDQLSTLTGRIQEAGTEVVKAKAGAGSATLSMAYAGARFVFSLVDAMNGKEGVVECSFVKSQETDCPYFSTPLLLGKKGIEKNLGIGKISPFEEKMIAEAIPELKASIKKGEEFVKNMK
Description: Reagent Preparations & Assay Protocol: This assay was performed as described above for the GroEL/ES-dMDH refolding assay; however, the assay protocol differed in the sequence of compound addition to the assay plates. The refolding reactions were allowed to proceed for 45 min at 37° C. in the absence of test compounds (complete refolding of MDH occurs), then quenched with the EDTA stock. Compounds were then pin-transferred into the plates after the EDTA quenching step; thus, compounds effects are only possible by inhibiting the fully-refolded MDH reporter substrate. […] A340 nm measurements were recorded at 0.5 minutes (start point) and at successive time points until the amount of NADH consumed reached ˜90% (end point, generally between 20-35 minutes). Compounds were tested in 8-point, 3-fold dilution series (62.5 μM to 29 nM during the reporter reaction) in clear, flat-bottom 384-well microtiter plates. DMSO was used as a negative control, and previously discovered native MDH inhibitors were used as positive controls. […] Results presented represent the averages of IC50 values obtained from at least quadriplicate (duplicate of duplicate) replicates.

[2] = tested on: Pseudomonas aeruginosa (ATCC 10145); assay: Bacterial proliferation assay, P. aeruginosa; type: cell-based
Source text: (§1) Bacterial Strains: Enterococcus faecium—(Orla-Jensen) Schleifer and Kilpper-Balz strain NCTC 7171 (ATCC 19434); Drug sensitive Staphylococcus aureus—Rosenbranch strain Seattle 1945 (ATCC 25923); Methicillin resistant S. aureus (MRSA)—Rosenbach strain HPV107 (ATCC BAA-44); Klebsiella Pneumonia—(Schroeter) Trevisan strain NCTC 9633 (ATCC 13883); Acinetobacter baumannii—Bouvet and Grimont strain 2208 (ATCC 19606); Pseudomonas aeruginosa—(Schroeter) Migula strain NCTC 10332 (ATCC 10145); Enterobacter cloacae—E. cloacae, subsp. cloacae (Jordan) Hormaeche and Edwards strain CDC 442-68 (ATCC 13047).
(§2) Growth Media: All bacteria were grown in Brain Heart Infusion (BHI) broth/agar (Becton, Dickinson and Company). All liquid cultures were grown in BHI media supplemented with 25 mg/L Ca^2+ and 12.5 mg/L Mg^2+ to mimic free physiological concentrations of these cations. A 10 mg/mL Ca^2+ stock solution was prepared by dissolving 3.68 g of CaCl2.2H2O in 100 mL of deionized water, and a 10 mg/mL Mg^2+ stock solution was prepared by dissolving 8.36 g of MgCl2.6H2O in 100 mL deionized water. Both stock solutions were filter-sterilized using 0.2 μm pore size cellulose-acetate filters. 2.5 mL of the sterile 10 mg/mL Ca^2+ stock and 1.25 mL of the sterile 10 mg/mL Mg^2+ stock solutions were added per 1 L of autoclaved BHI medium to obtain 25 mg/L Ca^2+ and 12.5 mg/L Mg^2+ ions, respectively.
(§3) General Assay Protocol: Stock bacterial cultures were streaked onto BHI agar plates and grown overnight at 37° C. Fresh aliquots of broth were inoculated with single bacterial colonies and the cultures were grown overnight at 37° C. with shaking (240 rpm) in cation adjusted BHI media. The following morning, the overnight cultures were sub-cultured (1:5 dilution) into fresh aliquots of cation adjusted BHI media and grown at 37° C. for 1-2 hours with shaking. After 2 h, cultures were diluted into fresh media to achieve final OD600 readings of 0.017. Aliquots of these diluted cultures (30 μL) were added to clear, flat-bottom, 384-well polystyrene plates that were stamped with 0.5 μL of test compounds in 20 μL media. […] Plates were sealed with “Breathe Easy” oxygen permeable membranes (Diversified Biotech) and left to incubate at 37° C. without shaking (stagnant assay). OD600 nm readings were taken at either 6-8 h (S. aureus, MRSA, K. pneumonia, E. cloacae, and P. aeruginosa) or 24 h (E. faecium and A. baumannii). A second set of baseline control plates were prepared analogously, but without any bacteria added, to correct for possible compound absorbance and/or precipitation. Plates were then read at 600 nm using a Molecular Devices SpectraMax Plus384 microplate reader. […] Results presented represent the averages of EC50 values obtained from at quadriplicate (duplicate of duplicate) replicates.

[3] = tested on: Klebsiella Pneumonia (ATCC 13883); assay: Bacterial proliferation assay, K. pneumoniae; type: cell-based
Source text: as §1, §2, §3

[4] = tested on: Drug sensitive Staphylococcus aureus (ATCC 25923); assay: Bacterial proliferation assay, drug sensitive S. aureus; type: cell-based
Source text: as §1, §2, §3

[5] = tested on: Enterobacter cloacae (ATCC 13047); assay: Bacterial proliferation assay, E. cloacae; type: cell-based
Source text: as §1, §2, §3

[6] = log of IC50 (μM scale), with standard deviation, read-out: log(IC50) Native MDH Reporter (converted)
[7] = read-out: Biochemical Assay IC50 Native MDH Reporter
[8] = ATCC10145, OD600 at 6-8 h, read-out: Bacterial Proliferation EC50 P. aeruginosa
[9] = ATCC10145, log of EC50 (μM scale), with standard deviation, read-out: log(EC50) Bacterial Proliferation Assay P. aeruginosa (converted)
[10] = ATCC13883, OD600 at 6-8 h, read-out: Bacterial Proliferation EC50 K. pneumoniae
[11] = ATCC13883, log of EC50 (μM scale), with standard deviation, read-out: log(EC50) Bacterial Proliferation Assay K. pneumoniae (converted)
[12] = ATCC25923, OD600 at 6-8 h, read-out: Bacterial Proliferation EC50 S. aureus Sensitive
[13] = ATCC25923, log of EC50 (μM scale), with standard deviation, read-out: log(EC50) Bacterial Proliferation Assay S. aureus Sensitive (converted)
[14] = ATCC13047, OD600 at 6-8 h, read-out: Bacterial Proliferation EC50 E. cloacae
[15] = ATCC13047, log of EC50 (μM scale), with standard deviation, read-out: log(EC50) Bacterial Proliferation Assay E. cloacae (converted)

Structure (SMILES) | IC50 ([1]; Biochemical Assay IC50 Native MDH Reporter) | IC50 ([1]; log(IC50) Native MDH Reporter, log of IC50 (μM scale), with standard deviation) | EC50 ([2]; ATCC10145, read-out: Bacterial Proliferation EC50 P. aeruginosa) | EC50 ([2]; ATCC10145, read-out: log(EC50) Bacterial Proliferation Assay P. aeruginosa (converted)) | EC50 ([3]; ATCC13883, read-out: Bacterial Proliferation EC50 K. pneumoniae) | EC50 ([3]; ATCC13883, read-out: log(EC50) Bacterial Proliferation Assay K. pneumoniae (converted)) | EC50 ([4]; ATCC25923, read-out: Bacterial Proliferation EC50 S. aureus Sensitive) | EC50 ([4]; ATCC25923, read-out: log(EC50) Bacterial Proliferation Assay S. aureus Sensitive (converted)) | EC50 ([5]; ATCC13047, read-out: Bacterial Proliferation EC50 E. cloacae) | EC50 ([5]; ATCC13047, read-out: log(EC50) Bacterial Proliferation Assay E. cloacae (converted)) | IC50 [1, 6] | IC50 [1, 7] | EC50 [2, 8] | EC50 [2, 9] | EC50 [3, 10] | EC50 [3, 11] | EC50 [4, 12] | EC50 [4, 13] | EC50 [5, 14] | EC50 [5, 15]
O=C(Nc1ccccc1)c1ccccc1O [Compound 16, 2-Hydroxy-N-phenylbenzamide] | > 63 µM | > 63.1 µM | > 100 µM | > 100 µM | > 100 µM | > 100 µM | 28 µM | 27.5 µM | > 100 µM | > 100 µM | – | – | – | – | – | – | – | – | – | –
O=C(Nc1ccc(Sc2nc3ccccc3s2)c(Cl)c1)c1cc(Br)cc(Br)c1 [Compound 17, N-(4-(Benzo[d]thiazol-2-ylthio)-3-chlorophenyl)-3,5-dibromobenzamide] | – | – | – | – | – | – | – | – | – | – | > 63.1 µM | > 63 µM | > 100 µM | > 100 µM | > 100 µM | > 100 µM | > 100 µM | > 100 µM | > 100 µM | > 100 µM
O=C(Nc1ccc(Sc2nc3ccccc3s2)c(Cl)c1)c1cccc(Br)c1 [Compound 18, N-(4-(Benzo[d]thiazol-2-ylthio)-3-chlorophenyl)-3-bromobenzamide] | – | – | – | – | – | – | – | – | – | – | > 63.1 µM | > 63 µM | > 100 µM | > 100 µM | > 100 µM | > 100 µM | > 100 µM | > 100 µM | > 100 µM | > 100 µM
O=C(Nc1ccc(Sc2nc3ccccc3s2)c(Cl)c1)c1ccccc1 [Compound 19, N-(4-(Benzo[d]thiazol-2-ylthio)-3-chlorophenyl)benzamide] | – | – | – | – | – | – | – | – | – | – | > 63.1 µM | > 63 µM | > 100 µM | > 100 µM | > 100 µM | > 100 µM | 43 µM | 42.7 µM | > 100 µM | > 100 µM
O=C(Nc1ccc(Sc2nc3ccccc3s2)cc1)c1cc(Br)cc(Br)c1 [Compound 20, N-(4-(Benzo[d]thiazol-2-ylthio)phenyl)-3,5-dibromobenzamide] | – | – | – | – | – | – | – | – | – | – | > 63.1 µM | > 63 µM | > 100 µM | > 100 µM | > 100 µM | > 100 µM | > 100 µM | > 100 µM | > 100 µM | > 100 µM
O=C(Nc1ccc(Sc2nc3ccccc3s2)cc1)c1cccc(Br)c1 [Compound 21, N-(4-(Benzo[d]thiazol-2-ylthio)phenyl)-3-bromobenzamide] | – | – | – | – | – | – | – | – | – | – | > 63.1 µM | > 63 µM | > 100 µM | > 100 µM | > 100 µM | > 100 µM | > 100 µM | > 100 µM | > 100 µM | > 100 µM
O=C(Nc1ccc(Sc2nc3ccccc3s2)cc1)c1ccccc1 [Compound 22, N-(4-(Benzo[d]thiazol-2-ylthio)phenyl)benzamide] | – | – | – | – | – | – | – | – | – | – | > 63.1 µM | > 63 µM | > 100 µM | > 100 µM | > 100 µM | > 100 µM | > 100 µM | > 100 µM | > 100 µM | > 100 µM
